Values of other authors as cited in patent US8613858B2, “Separation process” (Dupont Nutrition Biosciences APS, priority 2005, dated 2013).

Tests used:
[1] = characteristic properties of model compounds
[2] = characteristic properties of model compounds; remark: listed apart in the source

| SMILES | LogPOW [1] | Water solubility [2] [mg/mL] |
| --- | --- | --- |
| OCC(O)CO [Glycerol] | −1.76 |  |
| O=C(O)CC(O)(CC(=O)O)C(=O)O [Citric acid] | −1.67 |  |
| C[N+](C)(C)CC(=O)O [Betaine] | −2.93 | 611 |
